Data as given in patent US10500207B2, “Compounds for the treatment of diseases associated with amyloid or amyloid-like proteins” (AC Immune SA, priority 2010, dated 2019).

Target: Aβ1-42 peptide (Homo sapiens, UniProt P05067)
Assay: Thioflavin T spectrofluorescence assay (ThT-assay): inhibition of Aβ1-42 aggregation (% inhibition at 330 μM; IC50 from dilution series)
Settings: 24 h, read-out: Inhibition at 330 μM [%], ThT assay; 330 μM small molecule, 33 μM Aβ1-42 (10:1), 24 hrs at 37° C.; mean ± standard deviation of two independent experiments
Description: Aβ1-42 lyophilized powder (Bachem) was reconstituted in hexafluoroisopropanol (HFIP) to 1 mM. The peptide solution was sonicated for 15 min at room temperature, agitated overnight, and aliquots were made into non-siliconized microcentrifuge tubes. The HFIP was then evaporated under a stream of argon. The resulting peptide film was dried under vacuum for 10 min, tightly sealed and stored at −80° C. until used.
A positive control without a small molecule was prepared to measure maximum RFU. A negative control without Aβ1-42 was prepared for each small molecule. […] The solutions were then incubated for 24 hrs at 37° C., and the spectrofluorescence (relative fluorescence units; RFU) were read in six replicates in black 384-well assay plates (Perkin-Elmer) on a Perkin-Elmer FluoroCount spectrofluorometer. The inhibition of aggregation is expressed as mean % inhibition±1 standard deviation (SD) according to the following equation:
Racemic compounds and their enantiomers were tested for their ability to inhibit amyloid peptide aggregation using the ThT assay. To determine the IC50, the following dilutions of the compounds were used in the ThT assay described above:

Sequence of Aβ1-42 peptide (P05067 672-713 limits assumed): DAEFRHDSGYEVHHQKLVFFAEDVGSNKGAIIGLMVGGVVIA

Row | SMILES | inhibition at 330 µM
1 | c1cc2c(C3CCNCC3)c[nH]c2cc1Nc1ccc2[nH]cc(C3CCNCC3)c2c1 [Example 36] | 98.2 ± 0.3%
2 | c1cc(N2CCOCC2)ccc1Nc1ccc2c(C3CCNCC3)c[nH]c2c1 [Example 73] | 99.2 ± 0.3%
3 | Cn1cc(C2CCNCC2)c2cc(Nc3ccc(F)c(F)c3)ccc21 [Example 57] | 85.1 ± 3.2%
4 | c1cc(N2CCOCC2)ccc1Nc1ccc2c(C3CCNCC3)c[nH]c2n1 [Example 69] | 86.5 ± 7.2%
5 | CNC1CCc2c(c3ccc(Nc4ccc(C)c(OC)c4)nc3n2C)C1 (centres unmarked) [Example 160] | 96.3 ± 0.3%
6 | COC1CCc2c(c3ccc(Nc4ccc5c(c4)OCO5)nc3n2C)C1 (centres unmarked) [Example 205] | 91.7 ± 0.1%
7 | CN1CCN(c2ccc(Nc3ccc4c5c(n(C)c4n3)CCCC5)cc2)CC1 [Example 166] | 93.6 ± 2.2%
8 | c1ccc(Nc2ccc3cc[nH]c3n2)nc1 [Example 9] | 70.8 ± 9.2%
9 | c1cc2[nH]cc(C3CCNCC3)c2cc1Nc1ccc2c3c([nH]c2n1)CCC3 [Example 47] | 99.1 ± 0.5%
10 | COc1ccc(Nc2ccc3c(C4CCNCC4)c[nH]c3n2)cc1F [Example 102] | 84.1 ± 1.5%
11 | CN1CCC(c2c[nH]c3cc(Nc4ccc5c(C6CCN(C)CC6)cn(C)c5n4)ccc23)CC1 [Example 196] | 80 ± 4.6%
12 | Fc1ccc(Nc2ccc3c(C4CCNCC4)c[nH]c3c2)cc1F [Example 52] | 83.6 ± 2.8%
13 | COc1cc(Nc2ccc3c4c(n(C)c3c2)CCC(OC)C4)ccc1F (centres unmarked) [Example 124] | 79.1 ± 3.8%
14 | CN1CCC(c2c[nH]c3cc(Nc4ccc5c(c4)CNCC5)ccc23)CC1 [Example 154] | 86.3 ± 2.6%
15 | c1ccc2c(c1)CCN(c1ccc3c(C4CCNCC4)c[nH]c3c1)C2 [Example 72] | 97.9 ± 0.5%
16 | CN1CCc2ccc(Nc3ccc4c5c(n(C)c4n3)CCCC5)cc2C1 [Example 201] | 93.3 ± 0.1%

Row | SMILES | inhibition at 330 µM
17 | CN1CCC(c2cn(C)c3nc(Nc4ccc5c(c4)CN(C)CC5)ccc23)CC1 [Example 152] | 80.8 ± 3.6%
18 | c1cc2cc(Nc3ccc4cc[nH]c4n3)ccc2[nH]1 [Example 18] | 97 ± 1.2%
19 | CNC1CCc2[nH]c3cc(Nc4ccc(OC)c(OC)c4)ccc3c2C1 (centres unmarked) [Example 120] | 100%
20 | CN1CCC(c2c[nH]c3cc(Nc4ccc5ncn(C)c5c4)ccc23)CC1 [Example 200] | 67.4 ± 3.4%
21 | CNC1CCc2c(c3cc(Nc4ccc(F)c(OC)c4)cnc3n2C)C1 (centres unmarked) [Example 138] | 69.3 ± 0.7%
22 | COC1CCc2c(c3cc(Nc4ccc5c(c4)OCO5)ccc3n2C)C1 (centres unmarked) [Example 125] | 84.2 ± 5.8%
23 | FC(F)(F)c1ccc(Nc2ccc3[nH]cc(C4CCNCC4)c3c2)cn1 [Example 56] | 58.5 ± 2.7%
24 | COc1ccc(Nc2ccc3[nH]cc(C4CCN(C)CC4)c3c2)cc1F [Example 101] | 70.2 ± 9.8%
25 | c1cc2ccc(NC3CCNCC3)nc2[nH]1 [Example 43] | 48.4 ± 20.3%
26 | CNC1CCc2[nH]c3nc(Nc4ccc(F)c(F)c4)ccc3c2C1 (centres unmarked) [Example 24] | 77.4 ± 15.6%
27 | CN1CCC(c2c[nH]c3cc(Nc4ccc5c(C6CCN(C)CC6)c[nH]c5c4)ccc23)CC1 [Example 119] | 99.2 ± 0.3%
28 | FC1(CNc2ccc3c(C4CCNCC4)c[nH]c3n2)CCNCC1 [Example 37] | 47.4 ± 5.2%
29 | CN1CCC(c2cn(C)c3nc(Nc4ccc(F)c(F)c4)ccc23)CC1 [Example 151] | 88.5 ± 2.8%
30 | CNC1CCc2c(c3ccc(Nc4ccc5c(C6CCN(C)CC6)c[nH]c5c4)nc3n2C)C1 (centres unmarked) [Example 117] | 90.7 ± 7.9%
31 | COC1CCc2c(c3ccc(Nc4ccc(F)cc4)cc3n2C)C1 (centres unmarked) [Example 191] | 89.7 ± 1.4%

Other lines, results leading:

Row | inhibition at 330 µM | SMILES
32 | 93 ± 2.2% | COc1ccc(Nc2ccc3c4c(n(C)c3c2)CCC(OC)C4)cc1OC (centres unmarked) [Example 123]
33 | 53.5 ± 0.4% | FC(F)(F)c1ccc(Nc2ccc3cc[nH]c3n2)cn1 [Example 4]
34 | 58.6 ± 9.5% | N#Cc1c[nH]c2nc(Nc3ccc(F)cc3)ccc12 [Example 15]
35 | 54.3 ± 3.4% | COC1CCc2c(c3ccc(Nc4ccc(N5CCOCC5)cc4)nc3n2C)C1 (centres unmarked) [Example 193]
36 | 95 ± 1.5% | CNC1CCc2c(c3ccc(Nc4ccc5c(c4)OCO5)nc3n2C)C1 (centres unmarked) [Example 157]
37 | 97.8 ± 1.8% | c1cc2ncc(Nc3ccc4cc[nH]c4n3)cc2[nH]1 [Example 13]
38 | 96.3% | c1cc2ccc(Nc3ccc4cc[nH]c4c3)cc2[nH]1 [Example 17]
39 | 96.6 ± 2% | CNC1CCc2c(c3ccc(Nc4cccc(N5CCOCC5)c4)nc3n2C)C1 (centres unmarked) [Example 82]
40 | 92 ± 0.8% | c1cc2c(C3CCNCC3)c[nH]c2cc1Nc1ccc2c(C3CCNCC3)c[nH]c2n1 [Example 48]
41 | 92.8 ± 0.1% | CN1CCC(c2c[nH]c3cc(Nc4cccc(N5CCOCC5)c4)ccc23)CC1 [Example 20]
42 | 80.8 ± 2.9% | COc1cc(Nc2ccc3c(c2)c2c(n3C)CCC(OC)C2)ccc1F (centres unmarked) [Example 122]
43 | 94.7 ± 1% | COC(=O)c1c[nH]c2nc(Nc3ccc4c(C5CCNCC5)c[nH]c4c3)ccc12 [Example 32]
44 | 56.6 ± 23% | Fc1ccc(Nc2ccc3cc[nH]c3n2)cc1F [Example 3]
45 | 67.3 ± 10.4% | CNC1CCc2c(c3cc(Nc4ccc(F)c(F)c4)cnc3n2C)C1 (centres unmarked) [Example 134]
46 | 69.4 ± 2.7% | CC(=O)N(C)C1CCc2c(c3ccc(Nc4ccc(N5CCOCC5)cc4)nc3n2C)C1 (centres unmarked) [Example 164]
47 | 29.6 ± 6.2% | Cn1c2c(c3cc(Nc4ccc5c(c4)OCCO5)ccc31)CS(=O)(=O)CC2 [Example 177]
48 | 91.9 ± 1.6% | CNC1CCc2c(c3ccc(Nc4ccc5ncn(C)c5c4)nc3n2C)C1 (centres unmarked) [Example 159]
49 | 73.2 ± 6.2% | COCCNC1CCc2c(c3ccc(Nc4ccc(OC)c(OC)c4)nc3n2C)C1 (centres unmarked) [Example 142]
50 | 85.1 ± 0.8% | CNC1CCc2c(c3ccc(Nc4ccc5c(c4)OCCO5)nc3n2C)C1 (racemic) [Example 156]
51 | 62.7 ± 4% | Fc1ccc(Nc2ccc3cc[nH]c3n2)cc1 [Example 10]
52 | 99.4 ± 0.8% | CNC1CCc2[nH]c3cc(Nc4ccc5c(c4)OCCO5)ccc3c2C1 (centres unmarked) [Example 132]
53 | 84.3 ± 3.1% | CNC1CCc2c(c3ccc(Nc4cc(F)c(F)c(F)c4)nc3n2C)C1 (centres unmarked) [Example 30]

Row | inhibition at 330 µM | SMILES
54 | 75.3 ± 14.5% | c1cc2ccc(Nc3ccc4cc[nH]c4n3)cc2[nH]1 [Example 12]
55 | 95.1 ± 0.9% | CNC1CCc2c(c3ccc(Nc4ccc5c(c4)OCC(=O)N5)nc3n2C)C1 (centres unmarked) [Example 85]
56 | 87.2 ± 1.3% | CN1CCc2ccc(Nc3ccc4c5c(n(C)c4n3)CCC5)cc2C1 [Example 174]
57 | 88.7 ± 2.2% | CN1CCC(c2c[nH]c3cc(Nc4ccc5c(C6CCN(C)CC6)c[nH]c5n4)ccc23)CC1 [Example 148]
58 | 98.1 ± 0.3% | c1cc2c(C3CCNCC3)c[nH]c2nc1Nc1ccc2c3c([nH]c2n1)CCCC3 [Example 44]
59 | 88 ± 1.4% | COCCOC1CCc2c(c3ccc(Nc4ccc(F)c(F)c4)nc3n2C)C1 (centres unmarked) [Example 136]
60 | 90.5 ± 0.5% | COc1ccc(Nc2ccc3c4c(n(C)c3n2)CCCC4)cc1OC [Example 81]
61 | 66.2 ± 6.5% | Cn1c2c(c3cc(Nc4ccc5c(c4)OCCO5)ccc31)CN(CCCCS(C)(=O)=O)CC2 [Example 209]
62 | 90.1 ± 2.3% | Cn1c2c(c3ccc(Nc4ccc5c(c4)OCCO5)nc31)CCC2 [Example 173]
63 | 91.3 ± 4.2% | CN1CCC(c2c[nH]c3cc(Nc4ccc5c(c4)OCO5)ccc23)CC1 [Example 153]
64 | 99 ± 0.3% | Cn1cc(C2CCNCC2)c2cc(Nc3ccc4c5c([nH]c4n3)CCC5)ccc21 [Example 59]
65 | 41.5 ± 3.6% | Cn1c2c(c3cc(Nc4ccc(F)c(F)c4)ccc31)CS(=O)(=O)CC2 [Example 176]
66 | 95.9 ± 1.3% | c1cc2c(cc1Nc1ccc3c(C4CCNCC4)c[nH]c3c1)CCC2 [Example 65]
67 | 99.6 ± 0.6% | CNC1CCc2c(c3ccc(Nc4ccc5[nH]cc(C6CCNCC6)c5c4)nc3n2C)C1 (centres unmarked) [Example 92]
68 | 86.7 ± 0.8% | CNC1CCc2[nH]c3nc(Nc4cc(F)c(F)cc4F)ccc3c2C1 (centres unmarked) [Example 27]
69 | 88.9 ± 2.6% | Cn1c2c(c3ccc(Nc4ccc5c(c4)OCC(=O)N5)nc31)CCCC2 [Example 167]
70 | 82.7 ± 0.7% | CNC1CCc2c(c3ccc(Nc4ccc(N5CCN(C)CC5)cc4)nc3n2C)C1 (centres unmarked) [Example 83]
71 | 86.2 ± 8.6% | c1cc2cc(Nc3ccc4cc[nH]c4n3)cnc2[nH]1 [Example 11]
72 | 68.6 ± 0.5% | CCOC(=O)N1CCc2c(c3cc(Nc4ccc(F)c(F)c4)ccc3n2C)C1 [Example 199]
73 | 95.3 ± 0.1% | COc1ccc(Nc2ccc3c(C4CCNCC4)cn(C)c3c2)cc1F [Example 98]
74 | 95.4 ± 0.3% | CN1CCC(c2c[nH]c3ccc(Nc4ccc5c(C6CCNCC6)c[nH]c5c4)cc23)CC1 [Example 64]

Same assay, conditions: IC50 μM 1st assay, ThT assay, dilution series 330 μM to 0.08 μM; 1st assay

Row | SMILES | IC50
75 | CNC1CCc2c(c3ccc(Nc4ccc(N5CCOCC5)cc4)nc3n2C)C1 (single isomer, unassigned) [Example 216a] | 99.3 µM
76 | CNC1CCc2c(c3ccc(Nc4ccc(N5CCOCC5)cc4)nc3n2C)C1 (single isomer, unassigned) [Example 216b] | 45 µM
77 | CNC1CCc2c(c3ccc(Nc4ccc(F)c(F)c4)nc3n2C)C1 (single isomer, unassigned) [Example 214a] | 35.4 µM

Results, then the compound that gave them:

Row | IC50 | SMILES
78 | 39.7 µM | CNC1CCc2c(c3ccc(Nc4ccc5c(c4)OCCO5)nc3n2C)C1 (racemic) [Example 156]
79 | 28 µM | CNC1CCc2c(c3ccc(Nc4ccc5c(c4)OCCO5)nc3n2C)C1 (single isomer, unassigned) [Example 217a]

Same assay, conditions: IC50 μM 2nd assay, ThT assay, dilution series 330 μM to 0.08 μM; 2nd assay

Row | SMILES | IC50
80 | CNC1CCc2c(c3ccc(Nc4ccc(N5CCOCC5)cc4)nc3n2C)C1 (single isomer, unassigned) [Example 216a] | 54.9 µM
81 | CNC1CCc2c(c3ccc(Nc4ccc(N5CCOCC5)cc4)nc3n2C)C1 (single isomer, unassigned) [Example 216b] | 34.5 µM
82 | CNC1CCc2c(c3ccc(Nc4ccc(F)c(F)c4)nc3n2C)C1 (single isomer, unassigned) [Example 214a] | 33.5 µM

Other lines, results leading:

Row | IC50 | SMILES
83 | 26.7 µM | CNC1CCc2c(c3ccc(Nc4ccc5c(c4)OCCO5)nc3n2C)C1 (racemic) [Example 156]
84 | 23.6 µM | CNC1CCc2c(c3ccc(Nc4ccc5c(c4)OCCO5)nc3n2C)C1 (single isomer, unassigned) [Example 217a]

Same assay, conditions: ThT assay; 330 μM small molecule, 33 μM Aβ1-42 (10:1), 24 hrs at 37° C.; mean ± standard deviation of two independent experiments

Row | Inhibition at 330 μM [%] | SMILES
85 | no inhibition | CN(C)C(=O)c1cccc(Nc2ccc3cc[nH]c3n2)c1 [Example 7]
86 | no inhibition | CN(C)C(=O)c1ccc(Nc2ccc3cc[nH]c3n2)cc1 [Example 5]
